Assay results from article PMC3320615, “β-Microseminoprotein Endows Post Coital Seminal Plasma with Potent Candidacidal Activity by a Calcium- and pH-Dependent Mechanism” (PLoS Pathogens, 2012).

Columns and labels:
[1] = system: Candida albicans ATCC 90028; experiment: CFU assay with C. albicans; format: cell-based; conditions: for Estimate (difference between means of log values): control - treatment
Excerpt: Candida albicans strains: ATCC 90028, CAF-1-2, SC5814, BM4f35II68, vaginal clinical isolates from Dept. of Clincal Microbiology, Skåne University Hospital, SO_303369 and SO_503471. Candida parapsilosis strains: ATCC 90018, BD1800, BD17837, and BM24/68/09. Candida glabrata strains: ATCC 90030, clinical isolates from Dept. of Clincal Microbiology, Skåne University Hospital, SO_3336, SO_3400 and SO_503413. All strains were inoculated from frozen culture and grown in Yeast extract-Peptone-Dextrose (YPD) (Sigma) and on Sabourand Dextrose Broth (SAB) (Difco) plates at 30°C with 5% (v/v) CO2. If not otherwise stated, ATCC 90028 was used for candidacidal experiments.
Candida albicans was grown over night, washed, and resuspended in 10 mM Tris, 5 mM glucose, pH 7.4 or pH 4. Approximately 4×10^3 to 10^4 CFU of C. albicans were incubated with the test substance in low or neutral pH buffer for 4 h at 37°C. After incubation, the suspension was diluted and plated. Colonies were counted after two days incubation of the plates at 30°C. Bacteria from overnight cultures were inoculated in fresh medium and grown for 3 h, washed in 10 mM Tris, 5 mM glucose pH 7.4. Approximately 8×10^4 CFU were incubated with sample in 10 mM Tris, 5 mM glucose pH 7.4 or pH 4 for 1 h at 37°C, diluted, plated and incubated over night at 37°C and the colonies counted.
Statistical analysis was performed using SAS 9.2 software (SAS Institute, Cary, NC). Colony counts were log transformed. In order to choose the statistical method, interactions between the Treatment and Experiment were investigated. Treatments were screened by doing pair wise comparisons of each treatment to a control. Statistical tests used for the comparisons included MIXED procedure and LSMEANS statement. All tests where P-value<.05 were considered to indicate statistical significance. P-values were not adjusted for the multiple comparisons.
“Estimate” is the estimate of the difference between means of log values of treatment 1 and treatment 2

[2] = Liposome leakage (carboxyfluorescein release); format: biochemical; conditions: control experiments with EDTA alone
Protocol: Subsequently, buffer (10 mM Tris, pH 7.4) was added together with 0.1 M carboxyfluorescein (CF) (Sigma, St Louis, MO). After hydration, the lipid mixture was subjected to eight freeze-thaw cycles consisting of freezing in liquid nitrogen and heating to 60°C. Unilamellar liposomes of about Ø140 nm were generated by multiple extrusions through polycarbonate filters (pore size 100 nm) mounted in a […] (Avestin, Ottawa, Canada) at 22°C. Untrapped CF was then removed by two gel filtrations (Sephadex G-50) at 22°C, with Tris buffer as eluent. CF release was determined by monitoring the emitted fluorescence at 520 nm from liposome dispersions (10 mM lipid in 10 mM Tris). An absolute leakage scale was obtained by disrupting the liposomes at the end of the experiment through addition of 0.8 mM Triton X100 (Sigma, St Louis, MO), causing 100% release and dequenching of CF. Although calcein is frequently used for pH-dependent leakage studies, the high charge of this dye has been noted to influence its leakage behavior in the presence of highly cationic peptides. Instead, therefore, CF was used as a leakage marker at both pH 6.0 and 7.4, avoiding pH-dependent fluorescence effects through neutralization prior to probing the limiting leakage in case of pH 6.0 leakage. Throughout, a SPEX-fluorolog 1650 0.22-m double spectrometer (SPEX Industries, Edison, NJ) was used for the liposome leakage assay. Measurements were performed in at least triplicate at 37°C.

[3] = 5 µM, pH 4, with EDTA, experiment 1
[4] = 5 µM, pH 4, with EDTA, experiment 2
[5] = 5 µM, pH 4, with EDTA, experiment 3
[6] = 5 µM, pH 4, without EDTA, experiment 1
[7] = 5 µM, pH 4, without EDTA, experiment 2
[8] = 5 µM, pH 4, without EDTA, experiment 3

Molecule: O=C(O)CN(CCN(CC(=O)O)CC(=O)O)CC(=O)O [EDTA, reference compound]
- Estimate (difference between means of log values) ([1]; 25 µM, pH 4, experiment 1): 0.3309
- Estimate (difference between means of log values) ([1]; 25 µM, pH 4, experiment 2): -0.2077
- Estimate (difference between means of log values) ([1]; 25 µM, pH 4, experiment 3): -0.01878
- Liposome rupture [2]: no liposome rupture

Molecule: EISCCTLVSTPVGYDKDNCQ [MSP4, synthetic MSP-derived peptide]
- Estimate (difference between means of log values) [1, 3]: -0.3731
- Estimate (difference between means of log values) [1, 4]: -0.4012
- Estimate (difference between means of log values) [1, 5]: -0.1411
- Estimate (difference between means of log values) [1, 6]: -0.5304
- Estimate (difference between means of log values) [1, 7]: -0.8100
- Estimate (difference between means of log values) [1, 8]: -0.2155

Molecule: EWQTDNCETCTCYETEISCC [MSP3, synthetic MSP-derived peptide]
- Estimate (difference between means of log values) [1, 3]: 0.09392
- Estimate (difference between means of log values) [1, 4]: 0.05166
- Estimate (difference between means of log values) [1, 5]: -0.02824
- Estimate (difference between means of log values) [1, 6]: -0.2487
- Estimate (difference between means of log values) [1, 7]: -0.7316
- Estimate (difference between means of log values) [1, 8]: -0.09956

Molecule: IVVEKKDPKKTCSVSEWII [MSP6, synthetic MSP-derived peptide]
- Estimate (difference between means of log values) [1, 3]: 1.6087
- Estimate (difference between means of log values) [1, 4]: 3.2325
- Estimate (difference between means of log values) [1, 5]: 0.6931
- Estimate (difference between means of log values) [1, 6]: -0.00322
- Estimate (difference between means of log values) [1, 7]: 0.07848
- Estimate (difference between means of log values) [1, 8]: 0.9139

Molecule: KDNCQRIFKKEDCKYIVVEK [MSP5, synthetic MSP-derived peptide encompassing residues 61–80]
- Fungicidal activity in CFU assay (rank among overlapping peptides) ([1]; 5 µM, pH 4): highest fungicidal activity of the tested peptides
- Estimate (difference between means of log values) [1, 3]: 2.0492
- Estimate (difference between means of log values) [1, 4]: 4.5365
- Estimate (difference between means of log values) [1, 5]: 3.0952
- Estimate (difference between means of log values) [1, 6]: 0.5704
- Estimate (difference between means of log values) [1, 7]: 0.3334
- Estimate (difference between means of log values) [1, 8]: 0.6913

Molecule: LL-37 [reference compound]
- Estimate (difference between means of log values) ([1]; 50 µM LL-37, pH 4, + 50 µM calcium, experiment 1): 1.6956
- Estimate (difference between means of log values) ([1]; 50 µM LL-37, pH 4, + 50 µM calcium, experiment 2): 1.8880
- Estimate (difference between means of log values) ([1]; 50 µM LL-37, pH 4, + 75 µM calcium, experiment 1): 1.5909
- Estimate (difference between means of log values) ([1]; 50 µM LL-37, pH 4, + 75 µM calcium, experiment 2): 1.5305
- Estimate (difference between means of log values) ([1]; 50 µM LL-37, pH 4, + 100 µM calcium, experiment 1): 1.3942
- Estimate (difference between means of log values) ([1]; 50 µM LL-37, pH 4, + 100 µM calcium, experiment 2): 1.4384
- Estimate (difference between means of log values) ([1]; 50 µM LL-37, pH 4, + 200 µM calcium, experiment 1): 1.3064
- Estimate (difference between means of log values) ([1]; 50 µM LL-37, pH 4, + 200 µM calcium, experiment 2): 1.4253
- Estimate (difference between means of log values) ([1]; 50 µM LL-37, pH 4, no calcium, experiment 1): 1.6339
- Estimate (difference between means of log values) ([1]; 50 µM LL-37, pH 4, no calcium, experiment 2): 2.4025
- Estimate (difference between means of log values) ([1]; 50 µM LL-37, pH 7.4, + 50 µM calcium, experiment 1): 2.0757
- Estimate (difference between means of log values) ([1]; 50 µM LL-37, pH 7.4, + 50 µM calcium, experiment 2): 2.0565
- Estimate (difference between means of log values) ([1]; 50 µM LL-37, pH 7.4, + 50 µM calcium, experiment 3): 2.6878
- Estimate (difference between means of log values) ([1]; 50 µM LL-37, pH 7.4, + 75 µM calcium, experiment 1): 1.1627
- Estimate (difference between means of log values) ([1]; 50 µM LL-37, pH 7.4, + 75 µM calcium, experiment 2): 2.6753
- Estimate (difference between means of log values) ([1]; 50 µM LL-37, pH 7.4, + 75 µM calcium, experiment 3): 2.9703
- Estimate (difference between means of log values) ([1]; 50 µM LL-37, pH 7.4, + 100 µM calcium, experiment 1): 1.6404
- Estimate (difference between means of log values) ([1]; 50 µM LL-37, pH 7.4, + 100 µM calcium, experiment 2): 2.5186
- Estimate (difference between means of log values) ([1]; 50 µM LL-37, pH 7.4, + 100 µM calcium, experiment 3): 2.6194
- Estimate (difference between means of log values) ([1]; 50 µM LL-37, pH 7.4, + 200 µM calcium, experiment 1): 1.4145
- Estimate (difference between means of log values) ([1]; 50 µM LL-37, pH 7.4, + 200 µM calcium, experiment 2): 2.7659
- Estimate (difference between means of log values) ([1]; 50 µM LL-37, pH 7.4, + 200 µM calcium, experiment 3): 3.5282
- Estimate (difference between means of log values) ([1]; 50 µM LL-37, pH 7.4, no calcium, experiment 1): 3.2986
- Estimate (difference between means of log values) ([1]; 50 µM LL-37, pH 7.4, no calcium, experiment 2): 3.2280
- Estimate (difference between means of log values) ([1]; 50 µM LL-37, pH 7.4, no calcium, experiment 3): 4.0296

Molecule: RKCMDLKGNKHPINSEWQTD [MSP2, synthetic MSP-derived peptide]
- Estimate (difference between means of log values) [1, 3]: 0.5727
- Estimate (difference between means of log values) [1, 4]: 0.2951
- Estimate (difference between means of log values) [1, 5]: 0.5877
- Estimate (difference between means of log values) [1, 6]: -0.4638
- Estimate (difference between means of log values) [1, 7]: -0.7678
- Estimate (difference between means of log values) [1, 8]: 0.2466

Molecule: SCYFIPNEGVPGDSTRKCMD [MSP1, synthetic MSP-derived peptide]
- Estimate (difference between means of log values) [1, 3]: -0.3564
- Estimate (difference between means of log values) [1, 4]: -0.5558
- Estimate (difference between means of log values) [1, 5]: -0.1369
- Estimate (difference between means of log values) [1, 6]: -0.6949
- Estimate (difference between means of log values) [1, 7]: -0.6938
- Estimate (difference between means of log values) [1, 8]: -0.2057

Molecule: TNKCQKILNKKTCTYTVVEK [PMSP, peptide from porcine MSP corresponding to human MSP61–80]
- Effect of calcium and magnesium on antifungal activity ([1]; data not shown): inhibited by calcium but not magnesium
- Fungicidal activity compared with human MSP61–80 ([1]; pH 4, with and without EDTA, Figure S4): even higher fungicidal activity than its human counterpart
- Difference of mean colony counts between control and treatment ([1]; pH 4, with and without EDTA, three independent experiments): Significant difference (reduction)
